Reference: patent publication US20120040956A1, “INHIBITORS OF HIF-1 PROTEIN ACCUMULATION” (INTERMED DISCOVERY GMBH, priority 2008, published 2012)

Experiments:
IKKy/NEMO = test: Cellular protein translation in 293T cells (anti-IKKy/NEMO immunoblotting); format: cell-based, human; details: 100 nM, 10 h and 24 h
Experimental: 293T cells were grown in the presence of the known translation inhibitor cycloheximide (10 μg/ml) and 100 nM of IMD-019064, IMD-026259 and IMD-026260 respectively. […] Cells were harvested after 10 h and 24 h and cell lysates were produced. Equal amounts of protein contained in the cell lysates were used for immunoblotting with anti-IKKy/NEMO antibodies as shown in FIG. 12. IKKy/NEMO is a constitutively expressed relatively labile protein. Thus successful inhibition of cellular protein translation should result in significant decline of anti-IKKy/NEMO signal.

HUVEC [1] = test: Spheroid-based angiogenesis assay, VEGF-A induced HUVEC sprouting; format: cell-based, human
Experimental: As described in Example 4 HUVEC spheroids were generated, cultivated and embedded in a 3D collagen gel and stimulated with Vascular Endothelial Growth Factor alpha [VEGF-A; 25 ng/ml] instead of deferoxamine. Cell spheroids were treated for 24 h with different concentrations of IMD-026259; IMD-026260; Sutent® (Sunitinib) and Sorafenib (Nexavar®) (in Molar [M], as indicated in Table 4; see also FIG. 14A).
The cumulative sprout length of 10 randomly selected spheroids per data point was analyzed and the relative inhibition by the test compound determined. Fitting of IC50 curves and calculation of IC50 values was performed with GraphPad Prism® 5.01 (trademarked by GraphPad Software Inc.). […] Results from the examples described above are summarized in FIG. 14b IC50 values are given in nM for in vitro angiogenesis (HUVEC sprouting) studies after hypoxic or VEGF induction.

[2] = tested on: PDK1 (pyruvate dehydrogenase kinase1); test: HIF-1 target gene PDK1 expression in 293T cells by real-time PCR; format: cell-based; details: Homo sapiens, HEK-293T, 1 h pretreatment, 8 h hypoxia, read-out: IC50, suppression of endogenous PDK1 gene expression
Experimental: Human 293T cells were cultivated either under normoxic conditions or under hypoxic conditions (1% oxygen) for 4 and 8 hs respectively. Cells were harvested, followed by the isolation of RNA and the generation of cDNAs from Oligo (dT)20 primers using a Reverse Transcriptase kit. Then gene expression was measured by real-time PCR for the following two selected HIF-1α target genes: LDH-A (lactate dehydrogenase isoform A), and PDK1 (pyruvate dehydrogenase kinase1). Real-time PCR was performed with cDNA using specific primers and the SYBR Green I detection chemistry system (Applied Biosystems), utilizing an ABI Prism 7300 system. Actin was also measured as an internal control. The relative abundance of the different genes was calculated by the comparative CT method. In order to facilitate comparison, gene expression under normoxic conditions was arbitrarily set to 1 for each of the three genes. Two independent experiments confirmed PDK1 as the gene which was induced most prominently compared to LDH.
To investigate the capability of the compounds to inhibit PDK1, 293T cells were pretreated for 1 h with 3 different concentrations of the respective inhibitors (IMD-019064; IMD-026259; and IMD-026260). Subsequently, cells were incubated under normoxic/hypoxic conditions for further 8 h and the expression of PDK1 was quantified by real-time PCR as described above.

NHDF (fibroblast) = NHDF (fibroblast) spheroid sprouting/scattering in 3D collagen gel; format: cell-based; details: Homo sapiens, 24 h, 3D collagen gel, read-out: IC50, NHDF fibroblast spheroid sprouting/scattering
Experimental: Prior application the stock solution [100 mM] of IMD-019064 was diluted 1:10 in DMSO and serially diluted in half logarithmic steps covering the concentration range from 10 mM to 1 μM using 100% DMSO. The final assay concentration ranged from 100 μM to 10 nM with a final DMSO concentration in the assay of 1%. The experiments were pursued in modification of the originally published protocol (Korff and Augustin: J Cell Sci 112: 3249-58, 1999). In brief, spheroids were prepared as described by Korff and Augustin: J Cell Biol 143: 1341-52, 1998) by pipetting 500 endothelial cells (EC) in a hanging drop on plastic dishes to allow overnight spheroid aggregation. […]
Plates were incubated at 37° C. for 24 hours and fixed by adding 4% paraformaldehyde. The cumulative sprout length of 10 randomly selected spheroids per data point was analyzed and the relative inhibition by the test compound determined. […] Sprouting intensity of EC and fibroblast spheroids was quantitated by an image analysis system using an inverted microscope and the digital imaging software Analysis 3.2 (Soft imaging system, Munster, Germany). […] The cumulative sprout length of 10 randomly selected spheroids per data point was analyzed according to the procedure used for the HUVEC experiment. […]

HUVEC [3] = test: Spheroid-based angiogenesis assay, Deferoxamine (hypoxia) induced HUVEC sprouting; format: cell-based, human
Experimental: Prior application the stock solution [100 mM] of IMD-019064 was diluted 1:10 in DMSO and serially diluted in half logarithmic steps covering the concentration range from 10 mM to 1 μM using 100% DMSO. The final assay concentration ranged from 100 μM to 10 nM with a final DMSO concentration in the assay of 1%. The experiments were pursued in modification of the originally published protocol (Korff and Augustin: J Cell Sci 112: 3249-58, 1999). In brief, spheroids were prepared as described by Korff and Augustin: J Cell Biol 143: 1341-52, 1998) by pipetting 500 endothelial cells (EC) in a hanging drop on plastic dishes to allow overnight spheroid aggregation. 50 EC spheroids were then embedded in 0.9 ml of a 3D collagen matrix and pipetted into individual wells of a 24 well plate to allow polymerization.
Plates were incubated at 37° C. for 24 hours and fixed by adding 4% paraformaldehyde. The cumulative sprout length of 10 randomly selected spheroids per data point was analyzed and the relative inhibition by the test compound determined. Fitting of IC50 curves and calculation of IC50 values was performed with GraphPad Prism 5.01. Sprouting intensity of EC and fibroblast spheroids was quantitated by an image analysis system using an inverted microscope and the digital imaging software Analysis 3.2 (Soft imaging system, Munster, Germany). In parallel NHDF (fibroblast) spheroids were embedded in a 3D collagen gel and treated for 24 h with different concentrations of IMD-019064. The cumulative sprout length of 10 randomly selected spheroids per data point was analyzed according to the procedure used for the HUVEC experiment.
The same assays were performed with IMD-026260; IMD-026259; Sutent® (Sunitinib) and Sorafenib (Nexavar®) (see Table 3 for final compound concentrations).

**Q.** With `CNCCOc1ccc2c(c1)OC1(c3ccc(Cl)cc3)C(c3ccccc3)CC(O)C21O` (stereo not shown) [IMD-026260, (1,3a,8b)-3a-(4-chlorophenyl)-6-(2-(methylamino)ethoxy)-3-phenyl-2,3,3a,8b-tetrahydro-1H-benzo[d]cyclopenta[b]furan-1,8b-diol] as the compound, how does the “anti-IKKy/NEMO signal (cellular protein translation)” value (IKKy/NEMO) read?
**A.** Its value is “did not result in reduced anti-IKKy/NEMO signals”.

**Q.** And the IC50 (HUVEC [1]; Homo sapiens, HUVEC, VEGF-A 25 ng/ml, 24 h, read-out: IC50, VEGF-A induced sprouting of HUVEC spheroids)?
**A.** The IC50 was 28 nM.

**Q.** And the “inhibition of angiogenic sprouting in vitro (HUVEC sprouting)” value (HUVEC [1]; after hypoxic or VEGF induction, summary statement)?
**A.** Its value is “potent inhibitors of angiogenic sprouting in vitro”.

**Q.** And the IC50 [2]?
**A.** The IC50 was 8 nM.

**Q.** And the IC50 (NHDF (fibroblast))?
**A.** Its IC50 is 180 nM.

**Q.** And the IC50 (HUVEC [3]; Homo sapiens, HUVEC, Deferoxamine 100 μM, 24 hours, collagen matrix, read-out: IC50, hypoxia induced EC (HUVEC) sprouting)?
**A.** Its IC50 is 13 nM.

**Q.** And the “difference in HUVEC and fibroblast sensitivity” value (HUVEC [3]; NHDF IC50 versus Deferoxamine-induced HUVEC IC50)?
**A.** The value was “greater than thirteen-fold”.
